How the values were obtained:
[1] = test system: basophils; test: Comparison of BTK inhibitors by BAT (CD63, CD203c); type: cell-based, human; details: concentration of 1 μM, 2 hours, blood from a healthy donor
Protocol: The BAT assay using the Flow Cast Basophil Activation Kit (Buhlmann Diagnostics; Catalog #B-CCR-STCON) was then conducted following manufacturer instructions by (1) stimulating the blood with anti-FcεR stimulation control in stimulation buffer with IL-3 and staining cells for CCR3 and CD63 for 15 minutes at 37° C., (2) lysing red blood cells and fixing cells with Lysing Reagent at room temperature for 10 minutes, (3) washing cells with Wash Buffer, and (4) acquiring data on a flow cytometer. Activated basophils were defined as CCR3+, low side scatter and CD63+. Percent of activated basophils was calculated as number of activated basophils over the total number of basophils. A four-parameter logistic regression was applied to determine the EC50 and EC90.
Blood samples were gently rocked at room temperature for 2 hours. […] Activated basophils were also defined as CCR3+, low side scatter and CD203c+.

[2] = test system: mast cells; test: Phosphorylation and degranulation of antigen-stimulated mast cells grown with chronic SCF (FIG. 21); type: cell-based; details: 1 μM, antigen 15 minutes
Protocol: Histamine release, CD63 expression, CD203c expression, pBTK (Y223) levels, pP38 (T180/Y182) levels, pPLCg1 (S1248) levels, pERK (T202/Y204) levels, and pS6 (S235/236) levels are shown. Mast cells were grown with continuous (chronic) exposure to SCF and then stimulated with antigen (Ag) for 15 minutes, leading to phosphorylation of multiple kinases, including pBTK, […], pP38, pERK, and pS6 ribosome. This stimulation increases degranulation markers, including CD63, CD203c, and histamine release.

[3] = test system: ISM patients; details: cited from earlier work
[4] = test system: subjects with AdvSM and ISM; details: cited from earlier work
[5] = test system: humans; details: cited from earlier work

For CC#CC(=O)N1CCC[C@H]1c1nc(-c2ccc(C(=O)Nc3ccccn3)cc2)c2c(N)nccn12 [acalabrutinib, Acalabrutinib ((S)-4-(8-amino-3-(1-(but-2-ynoyl)pyrrolidin-2-yl)imidazo[1,5-a]pyrazin-1-yl)-N-(pyridin-2-yl)benzamide), reference compound], the “basophil activation (CD63+, CD203c+)” value [1] was “no effect on basophil activation”.

In the case of Cn1cc(-c2cc3c(N4CCN(c5ncc([C@@](C)(N)c6ccc(F)cc6)cn5)CC4)ncnn3c2)cn1 [avapritinib], the “activation (phosphorylation and degranulation) of mast cells” value [2] is given as “only partially inhibits activation”, the “reduction of total symptom score compared to the placebo” value ([3]; 25 mg QD, week 24, ISM patients) is given as 5.7 points and the “ISM patients with dose interruptions due to adverse reactions” value ([3]; 25 mg QD) is given as 5%. For the same compound, the “treated subjects who failed to achieve a mean symptom score reduction of 30%” value ([3]; ISM patients, first 6 months of treatment) was “approximately half” and the “subjects who achieved a 50% symptom score reduction” value ([3]; ISM patients, within the first 6 months of treatment) was “about a third”.

In the case of Cc1nc(Nc2ncc(C(=O)Nc3c(C)cccc3Cl)s2)cc(N2CCN(CCO)CC2)n1 [dasatinib], the “subjects who discontinued treatment due to toxicity” value ([4]; 15 subjects with AdvSM and 18 subjects with ISM, overall) is given as 34% and the “pleural effusion, grade 3 adverse event, patients overall” value ([4]; overall study population) is given as 10%.

For C=CC(=O)N1CCC[C@@H](n2nc(-c3ccc(Oc4ccccc4)cc3)c3c(N)ncnc32)C1 [ibrutinib, Ibrutinib (1-[(3R)-3-[4-amino-3-(4-phenoxyphenyl)pyrazolo[3,4-d]pyrimidin-1-yl]piperidin-1-yl]prop-2-en-1-one)], the “adverse events associated with administration” value [5] is listed as “heightened risk of atrial fibrillation, hypertension, major bleeding events, and cytopenias”.
